In ChEMBL document CHEMBL5212743, “Selectivity Literature for EUbOPEN Chemogenomics Library wave 3” (2023):

Tests used:
[1] = target: 5-hydroxytryptamine receptor 1A (Homo sapiens, UniProt P08908); experiment: Selectivity interaction (GPCR panel (PDSP screen)) EUB0000705a HTR1A
[2] = target: T1, Alpha-2C adrenergic receptor (Homo sapiens, UniProt P18825); experiment: Selectivity interaction (GPCR panel (PDSP screen)) EUB0000705a ADRA2C
T1 sequence (P18825 whole entry): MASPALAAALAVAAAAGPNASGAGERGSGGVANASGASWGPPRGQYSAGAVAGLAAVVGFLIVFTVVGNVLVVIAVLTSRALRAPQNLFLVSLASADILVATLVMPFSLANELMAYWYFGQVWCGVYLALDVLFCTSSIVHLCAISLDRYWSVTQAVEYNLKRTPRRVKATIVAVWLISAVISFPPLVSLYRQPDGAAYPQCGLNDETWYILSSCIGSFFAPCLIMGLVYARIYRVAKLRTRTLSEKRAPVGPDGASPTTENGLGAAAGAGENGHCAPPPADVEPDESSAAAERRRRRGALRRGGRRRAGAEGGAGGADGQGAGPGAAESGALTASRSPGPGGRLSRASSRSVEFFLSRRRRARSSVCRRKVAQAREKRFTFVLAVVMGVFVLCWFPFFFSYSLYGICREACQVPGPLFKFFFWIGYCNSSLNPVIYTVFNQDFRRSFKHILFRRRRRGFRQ

[3] = target: Beta-3 adrenergic receptor (Homo sapiens, UniProt P13945); experiment: Selectivity interaction (GPCR panel (PDSP screen)) EUB0000705a ADRB3
[4] = target: T2, Alpha-1D adrenergic receptor (Homo sapiens, UniProt P25100); experiment: Selectivity interaction (GPCR panel (PDSP screen)) EUB0000705a ADRA1D
T2 sequence (P25100 whole entry): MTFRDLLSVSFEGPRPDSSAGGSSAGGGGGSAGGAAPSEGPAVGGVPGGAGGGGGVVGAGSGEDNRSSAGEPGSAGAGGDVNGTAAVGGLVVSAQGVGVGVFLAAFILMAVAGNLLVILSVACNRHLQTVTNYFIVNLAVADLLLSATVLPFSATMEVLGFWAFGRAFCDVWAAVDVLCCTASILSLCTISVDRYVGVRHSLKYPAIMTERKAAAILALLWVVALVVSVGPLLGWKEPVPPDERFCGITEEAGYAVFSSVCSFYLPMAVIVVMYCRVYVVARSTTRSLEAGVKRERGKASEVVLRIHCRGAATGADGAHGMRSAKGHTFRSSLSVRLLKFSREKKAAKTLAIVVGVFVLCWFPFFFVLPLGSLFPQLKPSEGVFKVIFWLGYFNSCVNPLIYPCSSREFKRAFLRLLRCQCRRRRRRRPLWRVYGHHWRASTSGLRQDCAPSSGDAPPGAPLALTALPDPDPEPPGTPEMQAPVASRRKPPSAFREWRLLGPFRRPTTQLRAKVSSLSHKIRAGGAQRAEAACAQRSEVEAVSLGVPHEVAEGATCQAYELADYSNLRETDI

[5] = target: T3, Leucine-rich repeat serine/threonine-protein kinase 2 (Homo sapiens, UniProt Q5S007); experiment: Selectivity interaction (KinomeScan (DiscoverX)) EUB0000705a LRRK2; conditions: at 1 µM
Mu-type opioid receptor = Mu-type opioid receptor (Homo sapiens, UniProt P35372); experiment: Selectivity interaction (GPCR panel (PDSP screen)) EUB0000705a OPRM1
[6] = target: T4, Alpha-1A adrenergic receptor (Homo sapiens, UniProt P35348); experiment: Selectivity interaction (GPCR panel (PDSP screen)) EUB0000705a ADRA1A
T4 sequence (P35348 whole entry): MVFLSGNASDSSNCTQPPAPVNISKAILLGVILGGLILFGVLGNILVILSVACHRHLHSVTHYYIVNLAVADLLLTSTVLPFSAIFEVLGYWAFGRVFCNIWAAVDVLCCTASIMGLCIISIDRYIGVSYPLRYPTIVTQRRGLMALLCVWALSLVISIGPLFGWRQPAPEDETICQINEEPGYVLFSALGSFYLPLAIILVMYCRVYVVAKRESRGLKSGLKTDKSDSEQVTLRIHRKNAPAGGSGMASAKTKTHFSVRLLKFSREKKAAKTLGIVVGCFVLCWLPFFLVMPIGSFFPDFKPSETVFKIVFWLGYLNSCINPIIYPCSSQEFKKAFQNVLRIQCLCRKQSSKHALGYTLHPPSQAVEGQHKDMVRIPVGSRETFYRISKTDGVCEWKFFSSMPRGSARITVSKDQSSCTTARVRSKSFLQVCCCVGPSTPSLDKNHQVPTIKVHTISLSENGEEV

[7] = target: T3, Leucine-rich repeat serine/threonine-protein kinase 2; experiment: Selectivity interaction (NanoBRET assay (HEK293T cells)) EUB0000705a LRRK2
[8] = target: T5, Tyrosine-protein kinase SYK (Homo sapiens, UniProt P43405); experiment: Selectivity interaction (ScanMAX (DiscoverX, competition-binding assay)) EUB0000232b SYK
[9] = target: T6, STE20-like serine/threonine-protein kinase (Homo sapiens, UniProt Q9H2G2); experiment: Selectivity interaction (ScanMAX (DiscoverX, competition-binding assay)) EUB0000232b SLK
[10] = target: T6, STE20-like serine/threonine-protein kinase; experiment: Selectivity interaction (ScanMAX (DiscoverX)) EUB0000232b SLK; conditions: at 1 µM
[11] = target: T7, Tyrosine-protein kinase Lck (Homo sapiens, UniProt P06239); experiment: Selectivity interaction (ScanMAX (DiscoverX, competition-binding assay)) EUB0000232b LCK
[12] = target: T8, Epidermal growth factor receptor (Homo sapiens, UniProt P00533); experiment: (§1) Selectivity interaction (ScanMAX (DiscoverX)) EUB0000232b EGFR; conditions: at 1 µM
T8 sequence (P00533 whole entry): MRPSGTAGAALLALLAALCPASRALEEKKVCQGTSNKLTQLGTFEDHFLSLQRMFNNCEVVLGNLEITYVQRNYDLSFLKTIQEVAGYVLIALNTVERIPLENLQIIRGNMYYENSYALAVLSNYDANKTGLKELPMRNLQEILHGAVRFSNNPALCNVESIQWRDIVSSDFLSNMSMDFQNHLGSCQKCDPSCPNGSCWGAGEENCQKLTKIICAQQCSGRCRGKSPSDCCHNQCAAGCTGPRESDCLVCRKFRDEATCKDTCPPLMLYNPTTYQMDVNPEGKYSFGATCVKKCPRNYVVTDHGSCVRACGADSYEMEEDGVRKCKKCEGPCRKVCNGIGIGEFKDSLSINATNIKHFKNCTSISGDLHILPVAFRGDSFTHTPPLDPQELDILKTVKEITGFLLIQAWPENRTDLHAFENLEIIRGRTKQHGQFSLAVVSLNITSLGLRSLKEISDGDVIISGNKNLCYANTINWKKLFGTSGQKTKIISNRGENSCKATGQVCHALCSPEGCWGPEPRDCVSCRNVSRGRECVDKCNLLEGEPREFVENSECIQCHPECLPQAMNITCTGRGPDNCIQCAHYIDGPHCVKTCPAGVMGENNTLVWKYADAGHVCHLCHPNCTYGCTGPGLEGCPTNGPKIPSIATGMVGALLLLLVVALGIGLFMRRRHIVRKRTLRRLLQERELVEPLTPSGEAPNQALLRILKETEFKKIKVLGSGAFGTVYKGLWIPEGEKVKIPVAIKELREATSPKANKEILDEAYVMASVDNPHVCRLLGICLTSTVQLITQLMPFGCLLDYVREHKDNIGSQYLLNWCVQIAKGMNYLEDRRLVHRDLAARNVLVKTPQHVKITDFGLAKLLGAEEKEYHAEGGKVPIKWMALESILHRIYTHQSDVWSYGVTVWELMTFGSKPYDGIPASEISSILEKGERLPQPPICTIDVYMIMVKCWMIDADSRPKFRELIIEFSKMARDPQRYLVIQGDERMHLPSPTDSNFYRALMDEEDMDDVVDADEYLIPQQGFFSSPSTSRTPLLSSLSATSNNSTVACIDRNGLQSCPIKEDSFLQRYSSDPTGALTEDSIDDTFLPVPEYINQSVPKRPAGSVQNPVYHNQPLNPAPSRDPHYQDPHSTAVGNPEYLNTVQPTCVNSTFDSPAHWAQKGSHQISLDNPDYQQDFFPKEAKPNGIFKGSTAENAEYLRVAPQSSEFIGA

[13] = tested on: Epidermal growth factor receptor (Homo sapiens), P00533 [L858R]; experiment: as §1; conditions: at 1 µM
[14] = target: T5, Tyrosine-protein kinase SYK; experiment: Selectivity interaction (ScanMAX (DiscoverX)) EUB0000232b SYK; conditions: at 1 µM
[15] = target: T8, Epidermal growth factor receptor; experiment: as §1; conditions: at 1 µM; remark: listed apart in the source
[16] = target: T8, Epidermal growth factor receptor; experiment: Selectivity interaction (ScanMAX (DiscoverX, competition-binding assay)) EUB0000232b EGFR
[17] = target: T7, Tyrosine-protein kinase Lck; experiment: Selectivity interaction (ScanMAX (DiscoverX)) EUB0000232b LCK; conditions: at 1 µM
[18] = target: T9, Leukocyte tyrosine kinase receptor (Homo sapiens, UniProt P29376); experiment: Selectivity interaction (ScanMAX (DiscoverX, competition-binding assay)) EUB0000285b LTK
T9 sequence (P29376 whole entry): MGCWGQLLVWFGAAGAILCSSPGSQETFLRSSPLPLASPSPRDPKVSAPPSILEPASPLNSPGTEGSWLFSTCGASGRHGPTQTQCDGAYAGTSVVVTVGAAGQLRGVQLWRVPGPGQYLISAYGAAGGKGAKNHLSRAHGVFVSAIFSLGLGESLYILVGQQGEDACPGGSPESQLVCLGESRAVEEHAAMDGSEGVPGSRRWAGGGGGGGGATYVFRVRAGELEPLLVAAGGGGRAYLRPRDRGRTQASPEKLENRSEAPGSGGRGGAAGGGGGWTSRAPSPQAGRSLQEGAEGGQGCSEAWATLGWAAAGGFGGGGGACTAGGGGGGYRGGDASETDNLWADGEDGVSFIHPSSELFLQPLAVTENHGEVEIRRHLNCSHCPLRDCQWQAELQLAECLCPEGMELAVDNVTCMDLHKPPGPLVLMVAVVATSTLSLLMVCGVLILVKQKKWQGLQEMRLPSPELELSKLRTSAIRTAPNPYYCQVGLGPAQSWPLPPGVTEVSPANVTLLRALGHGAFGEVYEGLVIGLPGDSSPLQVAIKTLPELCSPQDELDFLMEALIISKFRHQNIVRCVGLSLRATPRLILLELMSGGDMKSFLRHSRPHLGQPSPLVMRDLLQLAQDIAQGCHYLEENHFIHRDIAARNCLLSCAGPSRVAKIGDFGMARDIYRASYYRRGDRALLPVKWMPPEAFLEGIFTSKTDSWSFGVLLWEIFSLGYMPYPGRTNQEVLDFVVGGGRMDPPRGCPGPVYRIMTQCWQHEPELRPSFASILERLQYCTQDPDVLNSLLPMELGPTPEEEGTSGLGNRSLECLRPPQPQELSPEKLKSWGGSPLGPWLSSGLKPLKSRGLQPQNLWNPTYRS

[19] = target: T10, Serine/threonine-protein kinase LATS1 (Homo sapiens) (UniProt O95835); experiment: Selectivity interaction (ScanMAX (DiscoverX)) EUB0000285b LATS1; conditions: at 1 µM
T10 sequence (whole entry): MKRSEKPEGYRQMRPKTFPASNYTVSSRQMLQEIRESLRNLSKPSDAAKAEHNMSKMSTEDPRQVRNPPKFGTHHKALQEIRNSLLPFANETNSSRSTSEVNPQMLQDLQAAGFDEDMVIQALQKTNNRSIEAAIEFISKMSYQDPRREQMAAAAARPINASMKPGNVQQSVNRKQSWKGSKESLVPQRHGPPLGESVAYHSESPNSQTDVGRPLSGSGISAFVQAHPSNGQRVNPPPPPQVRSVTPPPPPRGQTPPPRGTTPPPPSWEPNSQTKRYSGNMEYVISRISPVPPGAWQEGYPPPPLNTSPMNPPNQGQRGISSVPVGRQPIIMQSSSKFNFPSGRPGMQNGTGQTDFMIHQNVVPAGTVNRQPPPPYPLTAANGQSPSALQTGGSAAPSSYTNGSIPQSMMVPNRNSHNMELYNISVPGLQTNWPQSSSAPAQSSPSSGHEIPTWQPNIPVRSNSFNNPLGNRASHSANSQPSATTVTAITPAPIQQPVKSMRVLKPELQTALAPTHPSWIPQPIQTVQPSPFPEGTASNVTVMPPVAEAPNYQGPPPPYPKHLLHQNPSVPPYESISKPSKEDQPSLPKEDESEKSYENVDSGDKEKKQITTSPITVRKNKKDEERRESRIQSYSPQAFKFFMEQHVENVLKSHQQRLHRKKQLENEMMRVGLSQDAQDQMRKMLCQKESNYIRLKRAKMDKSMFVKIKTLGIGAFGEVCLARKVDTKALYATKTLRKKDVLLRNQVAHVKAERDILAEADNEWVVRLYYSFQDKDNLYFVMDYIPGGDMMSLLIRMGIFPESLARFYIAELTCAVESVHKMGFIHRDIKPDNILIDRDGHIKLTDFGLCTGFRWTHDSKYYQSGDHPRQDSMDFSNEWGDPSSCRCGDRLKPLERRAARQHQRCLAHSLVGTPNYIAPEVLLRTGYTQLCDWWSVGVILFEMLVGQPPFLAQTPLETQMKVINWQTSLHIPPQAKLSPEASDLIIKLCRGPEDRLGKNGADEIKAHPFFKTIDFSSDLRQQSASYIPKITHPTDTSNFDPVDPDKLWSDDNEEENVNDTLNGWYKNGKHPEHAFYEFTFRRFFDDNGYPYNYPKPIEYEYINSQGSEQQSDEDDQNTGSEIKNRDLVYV

[20] = target: Serine/threonine-protein kinase LATS1 (Homo sapiens, UniProt O95835); experiment: Selectivity interaction (ScanMAX (DiscoverX, competition-binding assay)) EUB0000285b LATS1
[21] = target: Serine/threonine-protein kinase 4 (Homo sapiens, UniProt Q13043); experiment: Selectivity interaction (ScanMAX (DiscoverX, competition-binding assay)) EUB0000285b STK4
[22] = target: T11, Serine/threonine-protein kinase PAK 3 (Homo sapiens, UniProt O75914); experiment: Selectivity interaction (ScanMAX (DiscoverX)) EUB0000285b PAK3; conditions: at 1 µM
[23] = target: T9, Leukocyte tyrosine kinase receptor; experiment: Selectivity interaction (ScanMAX (DiscoverX)) EUB0000285b LTK; conditions: at 1 µM
[24] = target: Testis-specific serine/threonine-protein kinase 1 (Homo sapiens, UniProt Q9BXA7); experiment: Selectivity interaction (ScanMAX (DiscoverX, competition-binding assay)) EUB0000285b TSSK1B
[25] = target: T12, Serine/threonine-protein kinase 32C (Homo sapiens, UniProt Q86UX6); experiment: Selectivity interaction (ScanMAX (DiscoverX)) EUB0000285b STK32C; conditions: at 1 µM
[26] = target: T12, Serine/threonine-protein kinase 32C; experiment: Selectivity interaction (ScanMAX (DiscoverX, competition-binding assay)) EUB0000285b STK32C
[27] = target: T11, Serine/threonine-protein kinase PAK 3; experiment: Selectivity interaction (ScanMAX (DiscoverX, competition-binding assay)) EUB0000285b PAK3
[28] = target: Testis-specific serine/threonine-protein kinase 1 (Homo sapiens) (UniProt Q9BXA7); experiment: Selectivity interaction (ScanMAX (DiscoverX)) EUB0000285b TSSK1B; conditions: at 1 µM
[29] = target: Serine/threonine-protein kinase 4 (Homo sapiens) (UniProt Q13043); experiment: Selectivity interaction (ScanMAX (DiscoverX)) EUB0000285b STK4; conditions: at 1 µM
[30] = target: T13, Tyrosine-protein kinase JAK1 (Homo sapiens, UniProt P23458); experiment: Selectivity interaction (KinomeScan (DiscoverX)) EUB0000312b JAK1@kinase 1; conditions: at 1 µM
T13 sequence (P23458 whole entry): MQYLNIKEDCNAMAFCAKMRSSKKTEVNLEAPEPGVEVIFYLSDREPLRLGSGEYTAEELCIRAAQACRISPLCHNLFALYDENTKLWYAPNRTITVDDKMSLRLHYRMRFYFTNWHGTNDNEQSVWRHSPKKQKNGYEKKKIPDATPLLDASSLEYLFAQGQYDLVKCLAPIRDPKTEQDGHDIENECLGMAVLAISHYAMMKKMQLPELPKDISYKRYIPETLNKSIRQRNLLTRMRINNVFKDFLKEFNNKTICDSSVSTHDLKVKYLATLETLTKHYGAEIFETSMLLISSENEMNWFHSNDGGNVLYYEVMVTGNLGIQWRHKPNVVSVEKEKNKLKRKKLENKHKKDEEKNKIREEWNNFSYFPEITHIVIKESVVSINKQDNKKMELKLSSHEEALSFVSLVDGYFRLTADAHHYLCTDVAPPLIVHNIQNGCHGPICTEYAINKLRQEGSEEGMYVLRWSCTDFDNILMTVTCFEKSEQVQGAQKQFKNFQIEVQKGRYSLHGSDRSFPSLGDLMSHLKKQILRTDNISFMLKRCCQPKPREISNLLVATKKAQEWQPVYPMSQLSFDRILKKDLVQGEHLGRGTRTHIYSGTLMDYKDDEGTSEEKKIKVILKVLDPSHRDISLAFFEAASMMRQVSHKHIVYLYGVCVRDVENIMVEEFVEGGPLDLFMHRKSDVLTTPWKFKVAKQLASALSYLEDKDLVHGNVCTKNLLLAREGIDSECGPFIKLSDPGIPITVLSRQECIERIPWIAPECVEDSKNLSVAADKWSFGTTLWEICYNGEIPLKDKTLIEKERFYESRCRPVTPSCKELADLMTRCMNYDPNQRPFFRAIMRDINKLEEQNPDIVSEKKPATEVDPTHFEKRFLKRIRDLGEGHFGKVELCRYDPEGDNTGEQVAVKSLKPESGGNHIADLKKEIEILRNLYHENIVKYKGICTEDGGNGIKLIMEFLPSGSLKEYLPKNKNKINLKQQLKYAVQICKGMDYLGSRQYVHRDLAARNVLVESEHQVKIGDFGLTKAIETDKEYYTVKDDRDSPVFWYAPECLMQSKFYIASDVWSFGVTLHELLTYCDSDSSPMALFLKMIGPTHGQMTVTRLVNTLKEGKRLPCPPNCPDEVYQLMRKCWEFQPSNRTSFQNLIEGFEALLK

[31] = target: T14, Calcium/calmodulin-dependent protein kinase type 1B (Homo sapiens, UniProt Q6P2M8); experiment: Selectivity interaction (NanoBRET assay (HEK293T cells)) EUB0000312b PNCK
T14 sequence (Q6P2M8 whole entry): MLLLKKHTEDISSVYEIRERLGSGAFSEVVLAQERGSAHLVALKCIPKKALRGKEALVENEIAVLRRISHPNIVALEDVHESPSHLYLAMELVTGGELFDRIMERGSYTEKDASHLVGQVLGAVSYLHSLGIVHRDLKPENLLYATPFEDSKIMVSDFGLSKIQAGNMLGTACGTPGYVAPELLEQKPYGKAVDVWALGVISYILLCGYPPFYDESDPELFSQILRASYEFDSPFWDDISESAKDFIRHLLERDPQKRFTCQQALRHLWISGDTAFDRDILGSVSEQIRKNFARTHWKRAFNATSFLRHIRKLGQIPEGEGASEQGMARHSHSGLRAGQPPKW

[32] = target: T13, Tyrosine-protein kinase JAK1; experiment: Selectivity interaction (NanoBRET assay (HEK293T cells)) EUB0000312b JAK1@kinase 1
[33] = target: T15, Phosphatidylinositol 4,5-bisphosphate 3-kinase catalytic subunit alpha isoform (Homo sapiens, UniProt P42336); experiment: Selectivity interaction (NanoBRET assay (HEK293T cells)) EUB0000312b PIK3CA
T15 sequence (P42336 whole entry, the tested form may be a part, canonical isoform): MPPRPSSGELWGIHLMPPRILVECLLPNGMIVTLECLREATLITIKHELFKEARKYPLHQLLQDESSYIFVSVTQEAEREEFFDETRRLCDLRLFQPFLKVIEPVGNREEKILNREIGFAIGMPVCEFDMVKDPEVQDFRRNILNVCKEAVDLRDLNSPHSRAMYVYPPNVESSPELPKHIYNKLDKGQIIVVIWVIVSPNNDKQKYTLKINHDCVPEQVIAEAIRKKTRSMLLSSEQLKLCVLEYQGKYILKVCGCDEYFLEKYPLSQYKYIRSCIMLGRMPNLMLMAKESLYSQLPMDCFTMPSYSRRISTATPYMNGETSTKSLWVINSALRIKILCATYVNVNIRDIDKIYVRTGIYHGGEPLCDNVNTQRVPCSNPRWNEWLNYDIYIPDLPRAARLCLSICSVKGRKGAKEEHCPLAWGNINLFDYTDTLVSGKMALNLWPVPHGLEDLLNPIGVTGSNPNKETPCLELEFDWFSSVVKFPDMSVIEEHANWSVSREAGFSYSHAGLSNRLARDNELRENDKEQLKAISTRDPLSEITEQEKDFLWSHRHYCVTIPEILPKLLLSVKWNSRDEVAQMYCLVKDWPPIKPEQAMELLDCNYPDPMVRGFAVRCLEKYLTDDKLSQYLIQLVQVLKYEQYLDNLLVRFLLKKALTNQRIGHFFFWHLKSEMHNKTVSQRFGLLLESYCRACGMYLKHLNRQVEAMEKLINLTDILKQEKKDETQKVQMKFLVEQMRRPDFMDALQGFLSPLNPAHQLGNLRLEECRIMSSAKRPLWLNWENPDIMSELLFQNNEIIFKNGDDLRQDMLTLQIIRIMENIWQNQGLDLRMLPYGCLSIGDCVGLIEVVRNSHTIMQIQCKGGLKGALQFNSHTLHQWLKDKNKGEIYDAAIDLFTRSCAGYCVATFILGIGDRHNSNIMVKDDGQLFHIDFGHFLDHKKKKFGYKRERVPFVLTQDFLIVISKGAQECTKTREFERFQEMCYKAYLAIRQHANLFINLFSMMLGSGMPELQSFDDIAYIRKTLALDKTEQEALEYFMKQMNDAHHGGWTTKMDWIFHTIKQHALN

[34] = target: T16, Epithelial discoidin domain-containing receptor 1 (Homo sapiens, UniProt Q08345); experiment: Selectivity interaction (NanoBRET assay (HEK293T cells)) EUB0000312b DDR1
[35] = target: T14, Calcium/calmodulin-dependent protein kinase type 1B; experiment: Selectivity interaction (KinomeScan (DiscoverX)) EUB0000312b PNCK; conditions: at 1 µM
[36] = target: T15, Phosphatidylinositol 4,5-bisphosphate 3-kinase catalytic subunit alpha isoform; experiment: Selectivity interaction (KinomeScan (DiscoverX)) EUB0000312b PIK3CA; conditions: at 1 µM
[37] = target: T16, Epithelial discoidin domain-containing receptor 1; experiment: Selectivity interaction (KinomeScan (DiscoverX)) EUB0000312b DDR1; conditions: at 1 µM
[38] = target: Mitogen-activated protein kinase 9 (Homo sapiens, UniProt P45984); experiment: Selectivity interaction (KinomeScan (DiscoverX)) EUB0000312b MAPK9; conditions: at 1 µM
Sequence of Mitogen-activated protein kinase 9 (P45984 whole entry, looked up): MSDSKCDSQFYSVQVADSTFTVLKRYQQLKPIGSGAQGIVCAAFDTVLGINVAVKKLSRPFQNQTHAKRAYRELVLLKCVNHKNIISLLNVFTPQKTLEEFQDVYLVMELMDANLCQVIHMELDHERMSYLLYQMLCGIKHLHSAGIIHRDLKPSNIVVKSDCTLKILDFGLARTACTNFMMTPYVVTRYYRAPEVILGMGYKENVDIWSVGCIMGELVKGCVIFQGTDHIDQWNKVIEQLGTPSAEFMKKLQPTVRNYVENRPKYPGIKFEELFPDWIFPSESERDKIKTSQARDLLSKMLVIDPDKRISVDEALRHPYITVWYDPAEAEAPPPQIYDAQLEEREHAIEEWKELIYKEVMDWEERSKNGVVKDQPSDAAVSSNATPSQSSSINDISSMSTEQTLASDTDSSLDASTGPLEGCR

Structure (SMILES): CN1CCN(C(=O)C(C)(C)c2ccc(C(=O)Nc3cn4cc(-c5cc(C(C)(C)C)cc(C(C)(C)C)c5)ccc4n3)cc2)CC1 [T3-CLK-N]
- Ki [1]: 2.18 µM
- Ki [2]: > 10 µM
- Ki [3]: > 10 µM
- Ki [4]: > 10 µM
- % of control [5]: > 95%
- Ki (Mu-type opioid receptor): 4.52 µM
- Ki [6]: 1.67 µM
- IC50 [7]: > 10 µM

Structure (SMILES): CCCCN(Cc1ccccc1)C(=O)c1ccc(S(=O)(=O)Nc2ccccc2)cc1
- Kd [8]: > 10 µM
- Kd [9]: > 10 µM
- % of control [10]: 0%
- Kd [11]: > 10 µM
- % of control [12]: 4.9%
- % of control [13]: 0%
- % of control [14]: 1.7%
- % of control [15]: 0%
- Kd [16]: > 10 µM
- % of control [17]: 0%

Structure (SMILES): O=C(NCc1ccccc1)c1ccc(S(=O)(=O)NCc2ccccc2)cc1
- Kd [18]: > 10 µM
- % of control [19]: 8.6%
- Kd [20]: > 10 µM
- Kd [21]: > 10 µM
- % of control [22]: 0%
- % of control [23]: 0%
- Kd [24]: > 10 µM
- % of control [25]: 0%
- Kd [26]: > 10 µM
- Kd [27]: > 10 µM
- % of control [28]: 0%
- % of control [29]: 0%

Structure (SMILES): Cc1cnc(-c2cc(Cl)ccc2F)cc1-n1c(=O)n(CC(N)=O)c2cnccc21 [TP-008]
- % of control [30]: 38.6%
- IC50 [31]: > 20 µM
- IC50 [32]: > 20 µM
- IC50 [33]: > 20 µM
- IC50 [34]: > 20 µM
- % of control [35]: 39.5%
- % of control [36]: 33.9%
- % of control [37]: 36.7%
- % of control [38]: 39.6%
